Measurements: PubChem BioAssay (NCI)
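Protocol summary: plate cells (96-well), add compound at 5 concentrations, incubate 48 h, interpolate endpoints linearly. TGI is the concentration that stops growth completely.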

Assays:
Experiment in all cases: growth of human tumour cells (NCI), 48 h
[1] = system: 786-0 renal
[2] = system: A498 renal
[3] = system: A549 NSCLC
[4] = system: ACHN renal
[5] = system: CAKI-1 renal
[6] = system: CCRF-CEM leukemia
[7] = system: COLO 205 colon
[8] = system: DLD-1 colon
[9] = system: DMS 114 small cell lung
[10] = system: DMS 273 small cell lung
[11] = system: EKVX NSCLC
[12] = system: HCT-116 colon
[13] = system: HCT-15 colon
[14] = system: HOP-18 NSCLC
[15] = system: HOP-62 NSCLC
[16] = system: HOP-92 NSCLC
[17] = system: HT29 colon
[18] = system: IGROV1 ovarian
[19] = system: K-562 leukemia
[20] = system: KM12 colon
[21] = system: KM20L2 colon
[22] = system: LOX IMVI melanoma
[23] = system: LXFL 529 NSCLC
[24] = system: M14 melanoma
[25] = system: M19-MEL melanoma
[26] = system: MALME-3M melanoma
[27] = system: MOLT-4 leukemia
[28] = system: NCI-H23 lung
[29] = system: NCI-H460 lung
[30] = system: NCI-H522 lung
[31] = system: OVCAR-3 ovarian
[32] = system: OVCAR-4 ovarian
[33] = system: OVCAR-5 ovarian
[34] = system: OVCAR-8 ovarian
[35] = system: RPMI-8226 leukemia
[36] = system: RXF 393 renal
[37] = system: SF-268 CNS
[38] = system: SF-295 CNS
[39] = system: SF-539 CNS
[40] = system: SK-MEL-2 melanoma
[41] = system: SK-MEL-28 melanoma
[42] = system: SK-MEL-5 melanoma
[43] = system: SK-OV-3 ovarian
[44] = system: SN12C renal
[45] = system: SNB-19 CNS
[46] = system: SNB-75 CNS
[47] = system: SNB-78 CNS
[48] = system: SW-620 colon
[49] = system: TK-10 renal
[50] = system: U251 CNS
[51] = system: UACC-257 melanoma
[52] = system: UACC-62 melanoma
[53] = system: UO-31 renal
[54] = system: XF 498 CNS
[55] = system: HCC-2998 colon
[56] = system: HL-60(TB) leukemia
[57] = system: NCI-H226 lung
[58] = system: SR leukemia

In the case of `Cc1cc(NS(=O)(=O)c2ccc(Nc3c4ccccc4nc4c(C(=O)Nc5ccc(S(N)(=O)=O)cc5)cccc34)cc2)no1`, the TGI [1] is reported as > 100 µM, the TGI [2] is reported as > 100 µM and the TGI [3] is reported as > 100 µM. The TGI [4] was > 100 µM, the TGI [5] was > 100 µM and the TGI [6] was 79.9 µM. For the same compound, the TGI [7] was > 100 µM, the TGI [8] was > 100 µM and the TGI [9] was 77.3 µM. For the same compound, the TGI [10] was > 100 µM, the TGI [11] was > 100 µM and the TGI [12] was > 100 µM. For the same compound, the TGI [13] was > 100 µM, the TGI [14] was > 100 µM and the TGI [15] was > 100 µM. The TGI [16] was 81.6 µM, the TGI [17] was > 100 µM and the TGI [18] was > 100 µM. The TGI [19] was > 100 µM, the TGI [20] was 50.6 µM and the TGI [21] was > 100 µM. For the same compound, the TGI [22] was > 100 µM, the TGI [23] was 44.8 µM and the TGI [24] was > 100 µM. The TGI [25] was 64.8 µM, the TGI [26] was 53.1 µM and the TGI [27] was 78.9 µM. For the same compound, the TGI [28] was > 100 µM, the TGI [29] was > 100 µM and the TGI [30] was 54.1 µM. For the same compound, the TGI [31] was 31.7 µM, the TGI [32] was 51.1 µM and the TGI [33] was > 100 µM. For the same compound, the TGI [34] was > 100 µM, the TGI [35] was > 100 µM and the TGI [36] was > 100 µM. The TGI [37] was > 100 µM, the TGI [38] was > 100 µM and the TGI [39] was 61.2 µM. For the same compound, the TGI [40] was 69.3 µM, the TGI [41] was 83.9 µM and the TGI [42] was > 100 µM. For the same compound, the TGI [43] was > 100 µM, the TGI [44] was > 100 µM and the TGI [45] was 84.9 µM. The TGI [46] was > 100 µM, the TGI [47] was 60 µM and the TGI [48] was > 100 µM. For the same compound, the TGI [49] was > 100 µM, the TGI [50] was 57.4 µM and the TGI [51] was > 100 µM. For the same compound, the TGI [52] was 55.8 µM, the TGI [53] was > 100 µM and the TGI [54] was 57.9 µM.
For `CNc1ccc(/C=C2\C=Cc3ccccc32)cc1`, the TGI [1] was > 100 µM, the TGI [2] was 96.8 µM and the TGI [3] was > 100 µM. For the same compound, the TGI [4] was 54.5 µM, the TGI [5] was > 100 µM and the TGI [6] was > 100 µM. For the same compound, the TGI [7] was 33.3 µM, the TGI [8] was > 100 µM and the TGI [9] was 44.9 µM. The TGI [10] was 71.3 µM, the TGI [11] was 91.1 µM and the TGI [55] was 31.4 µM. The TGI [12] was > 100 µM, the TGI [13] was > 100 µM and the TGI [56] was > 100 µM. For the same compound, the TGI [14] was 55.2 µM, the TGI [15] was 53.7 µM and the TGI [16] was 50.9 µM. The TGI [17] was 38.4 µM, the TGI [18] was > 100 µM and the TGI [19] was > 100 µM. For the same compound, the TGI [20] was 26.4 µM, the TGI [21] was 35.8 µM and the TGI [22] was 24.5 µM. The TGI [23] was > 100 µM, the TGI [24] was 36.1 µM and the TGI [25] was > 100 µM. The TGI [27] was > 100 µM, the TGI [57] was 57.3 µM and the TGI [28] was 57.7 µM. It also gave a TGI [29] of 37.9 µM, a TGI [30] of 25.3 µM and a TGI [31] of 51.9 µM. The TGI [32] was > 100 µM, the TGI [33] was 45 µM and the TGI [34] was > 100 µM. The TGI [35] was > 100 µM, the TGI [36] was > 100 µM and the TGI [37] was > 100 µM. For the same compound, the TGI [38] was 99 µM, the TGI [39] was > 100 µM and the TGI [40] was 42 µM. For the same compound, the TGI [41] was > 100 µM, the TGI [42] was 54.3 µM and the TGI [43] was > 100 µM. For the same compound, the TGI [44] was > 100 µM, the TGI [45] was > 100 µM and the TGI [47] was > 100 µM. For the same compound, the TGI [58] was > 100 µM, the TGI [48] was > 100 µM and the TGI [49] was 54.6 µM. For the same compound, the TGI [50] was > 100 µM, the TGI [51] was > 100 µM and the TGI [52] was 71.9 µM. For the same compound, the TGI [53] was 30.5 µM and the TGI [54] was > 100 µM.
`CCN1C(=O)N(C)C(O)c2c1nc1ccccn1c2=O` (stereo not given) was tested, and the TGI [1] was 98.4 µM, the TGI [2] was 66.2 µM and the TGI [3] was 98.6 µM. The TGI [4] was > 100 µM, the TGI [6] was 95.5 µM and the TGI [7] was 37.6 µM. The TGI [8] was > 100 µM, the TGI [9] was > 100 µM and the TGI [10] was 42.4 µM. The TGI [11] was 53 µM, the TGI [55] was 43.6 µM and the TGI [12] was 84.1 µM. For the same compound, the TGI [13] was > 100 µM, the TGI [56] was 90.7 µM and the TGI [14] was 65.3 µM. The TGI [15] was 98.6 µM, the TGI [16] was 62.5 µM and the TGI [17] was 70.7 µM. The TGI [18] was > 100 µM, the TGI [19] was > 100 µM and the TGI [20] was > 100 µM. For the same compound, the TGI [21] was 59.8 µM, the TGI [22] was 33.2 µM and the TGI [23] was > 100 µM. The TGI [24] was > 100 µM, the TGI [25] was 83.6 µM and the TGI [26] was > 100 µM. For the same compound, the TGI [27] was > 100 µM, the TGI [57] was > 100 µM and the TGI [28] was 63.6 µM. For the same compound, the TGI [29] was 42.8 µM, the TGI [30] was 65.6 µM and the TGI [31] was 63.9 µM. The TGI [32] was > 100 µM, the TGI [34] was 46.4 µM and the TGI [35] was 78.6 µM. The TGI [36] was 59 µM, the TGI [37] was 68.8 µM and the TGI [38] was > 100 µM. For the same compound, the TGI [39] was 54.3 µM, the TGI [40] was 62.8 µM and the TGI [41] was 77.6 µM. The TGI [43] was 59.4 µM, the TGI [44] was 64 µM and the TGI [45] was > 100 µM. For the same compound, the TGI [46] was 56.7 µM, the TGI [47] was 82.5 µM and the TGI [58] was > 100 µM. For the same compound, the TGI [48] was > 100 µM, the TGI [49] was 60.4 µM and the TGI [50] was > 100 µM. For the same compound, the TGI [51] was > 100 µM, the TGI [52] was 1.98 µM and the TGI [53] was > 100 µM. It also gave a TGI [54] of 83.4 µM.
